Laboratory results: publication PMC3400110 (Journal of Medicinal Chemistry, 2009)
“And” between values parts separate entries of the source, which are not always exact repeats. Identical values can stand only once. Like-named read-outs stand apart in the source and are kept apart here.

Legend:
human P-gp-His10 [1] = biological target: T1, human P-gp-His10 (Homo sapiens, UniProt P08183)
[2] = tested on: MDCKII-MDR1 transfected cells, which over-express P-gp; experiment: Transport and cell association across monolayers of MDCKII-MDR1 cells; details: 5 μM dye, 4.3 mg mL^−1 BSA (23-Se: no added BSA); for PAB (absorptive transport), + inh / PBA (secretory transport), + inh: + […] inhibitor 42
human P-gp-His10 [3] = biological target: T1, human P-gp-His10; experiment: Stimulation of human P-gp-His10 ATPase activity; details: read-out: KM (apparent Michaelis-Menten constant, concentration for half maximal stimulation of ATPase activity)
log P = format: physicochemical; details: n-octanol/water
[4] = tested on: MDCKII-MDR1 transfected cells, which over-express P-gp; details: dog, MDCK-MDR1
P-gp = experiment: in vitro; details: dog, MDCK-MDR1

T1 sequence (P08183 whole entry): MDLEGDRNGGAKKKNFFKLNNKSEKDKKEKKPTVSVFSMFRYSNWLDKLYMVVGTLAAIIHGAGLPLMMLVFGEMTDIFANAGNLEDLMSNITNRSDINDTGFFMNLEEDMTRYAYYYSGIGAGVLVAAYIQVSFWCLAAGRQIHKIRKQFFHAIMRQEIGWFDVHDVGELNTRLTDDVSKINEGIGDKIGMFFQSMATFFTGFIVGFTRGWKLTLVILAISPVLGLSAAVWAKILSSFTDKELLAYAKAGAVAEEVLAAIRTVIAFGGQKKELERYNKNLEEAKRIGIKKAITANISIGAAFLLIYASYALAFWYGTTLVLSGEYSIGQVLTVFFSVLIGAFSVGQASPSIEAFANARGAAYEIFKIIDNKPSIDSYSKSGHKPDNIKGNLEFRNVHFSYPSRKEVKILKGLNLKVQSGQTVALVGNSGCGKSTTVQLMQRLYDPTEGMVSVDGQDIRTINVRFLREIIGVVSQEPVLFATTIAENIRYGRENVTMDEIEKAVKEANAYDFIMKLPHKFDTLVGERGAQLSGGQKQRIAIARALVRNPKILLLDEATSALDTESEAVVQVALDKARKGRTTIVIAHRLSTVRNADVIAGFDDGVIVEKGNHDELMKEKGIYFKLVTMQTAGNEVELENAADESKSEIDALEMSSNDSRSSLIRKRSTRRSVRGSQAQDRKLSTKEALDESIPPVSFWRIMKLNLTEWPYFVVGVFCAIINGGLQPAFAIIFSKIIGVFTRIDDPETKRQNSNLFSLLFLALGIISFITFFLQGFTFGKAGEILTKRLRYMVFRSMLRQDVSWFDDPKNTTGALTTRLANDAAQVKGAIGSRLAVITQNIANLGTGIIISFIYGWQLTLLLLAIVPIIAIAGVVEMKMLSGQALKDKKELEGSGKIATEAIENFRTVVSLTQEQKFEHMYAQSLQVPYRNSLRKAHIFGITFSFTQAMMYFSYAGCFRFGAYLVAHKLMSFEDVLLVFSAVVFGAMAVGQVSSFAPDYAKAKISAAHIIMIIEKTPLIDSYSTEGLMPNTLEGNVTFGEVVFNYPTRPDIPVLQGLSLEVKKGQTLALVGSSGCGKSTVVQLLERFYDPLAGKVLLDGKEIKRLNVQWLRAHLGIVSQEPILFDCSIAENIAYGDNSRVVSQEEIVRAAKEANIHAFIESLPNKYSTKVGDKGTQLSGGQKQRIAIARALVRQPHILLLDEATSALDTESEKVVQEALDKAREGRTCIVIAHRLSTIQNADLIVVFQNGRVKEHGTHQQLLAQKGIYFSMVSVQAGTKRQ

CN(C)c1ccc(-c2c3ccc(=[N+](C)C)cc-3[te]c3cc(N(C)C)ccc23)cc1 [Compound 5-Te]
Km (human P-gp-His10 [1]): 9 ± 0.8 µM

CN(C)c1ccc2c(-c3ccc(C(=S)N4CCCCC4)s3)c3ccc(N(C)C)cc3[te+]c2c1.F[P-](F)(F)(F)(F)F [Compound 30-Te, 3,6-Bisa(dimethylamino)-9-(N-piperidyl-2-thienyl-5-thiocarboxamido)telluroxanthylium Hexafluorophosphate]
PAB (absorptive transport), + inh [2]: 1.2 ± 0.1 nm/s | PBA (secretory transport), + inh [2]: 2.0 ± 0.1 nm/s | PAB (absorptive transport) ([2]; no inhibitor): 0.9 ± 0.1 nm/s | PBA (secretory transport) ([2]; no inhibitor): 22 ± 8 nm/s | Km (human P-gp-His10 [3]): 410 ± 30 nM | log P (log P): 0.9

CN(C)c1ccc2c(-c3ccc(C(=S)N4CCCCC4)s3)c3cc4c5c(c3[s+]c2c1)CCCN5CCC4.F[P-](F)(F)(F)(F)F [Compound 31-S, 12-(Dimethylamino)-2,3,6,7-tetrahydro-9-(N-Piperidyl-2-thienyl-5-thiocarboxamido)-1H,5H-thioxantheno[2,3,4-ij]quinolizin-14-ium Hexafluorophosphate]
PAB (absorptive transport), + inh [2]: 0.8 ± 0.1 0.8 ± 0.1 nm s^−1 | PBA (secretory transport), + inh [2]: 1.6 ± 0.1 nm/s | PBA (secretory transport) ([2]; no inhibitor): 50 nm/s and 50 ± 1 nm/s | Km (human P-gp-His10 [3]): 87 ± 12 nM

CN(C)c1ccc(-c2c3ccc(=[N+](C)C)cc-3[se]c3cc(N(C)C)ccc23)cc1 [Compound 5-Se]
Km (human P-gp-His10 [1]): 10.1 ± 0.7 µM

CN(C)c1cccc(-c2c3ccc(=[N+](C)C)cc-3[se]c3cc(N(C)C)ccc23)c1 [Compound 7-Se]
Km (human P-gp-His10 [1]): 3.5 ± 0.2 µM

CN(C)c1cccc(-c2c3ccc(=[N+](C)C)cc-3sc3cc(N(C)C)ccc23)c1 [Compound 7-S]
Km (human P-gp-His10 [3]): 3400 ± 600 nM

COc1cccc(-c2c3ccc(=[N+](C)C)cc-3[te]c3cc(N(C)C)ccc23)c1 [Compound 10-Te]
Km (human P-gp-His10 [1]): 3.2 ± 1 µM

CN(C)c1cccc(-c2c3ccc(=[N+](C)C)cc-3[te]c3cc(N(C)C)ccc23)c1 [Compound 7-Te]
Km (human P-gp-His10 [1]): 2 ± 0.1 µM

CN(C)c1ccc2c(-c3ccccc3)c3ccc(=[N+](C)C)cc-3[te]c2c1 [Compound 1-Te]
Km (human P-gp-His10 [1]): 8.3 ± 0.8 µM

CN(C)c1ccc2c(-c3ccc(CCl)cc3)c3ccc(=[N+](C)C)cc-3oc2c1.[Br-] [TMR, tetramethylrosamine]
P BA/AB (ratio of secretory to absorptive transport), + inh [4]: 338 1.6 | PAB (absorptive transport) [4]: 3.0 ± 0.1 14 ± 1 nm s^−1 | PAB (absorptive transport), + inh [4]: 3.0 ± 0.1 14 ± 1 nm s^−1 | PBA (secretory transport), + inh [4]: 1010 ± 10 21 ± 2 nm s^−1 | Papp (P-gp): 1.7 ± 0.5 ×10⁻⁶ cm/s

CN(C)c1ccc2c(-c3ccc(C(=S)N4CCCCC4)s3)c3ccc(N(C)C)cc3[s+]c2c1 [Compound 30-S, 3,6-Bis(dimethylamino)-9-(N-piperidyl-2-thienyl-5-thiocarboxamido)thioxanthylium Hexafluorophosphate]
Km (human P-gp-His10 [3]): 360 ± 80 nM

COc1cccc(-c2c3ccc(=[N+](C)C)cc-3[se]c3cc(N(C)C)ccc23)c1 [Compound 10-Se]
Km (human P-gp-His10 [1]): 3.3 ± 0.6 µM

COc1cccc(-c2c3ccc(=[N+](C)C)cc-3sc3cc(N(C)C)ccc23)c1 [Compound 10-S]
Km (human P-gp-His10 [3]): 3900 ± 100 nM

CN(C)c1ccc(-c2c3ccc(=[N+](C)C)cc-3sc3cc(N(C)C)ccc23)cc1 [Compound 5-S]
Km (human P-gp-His10 [3]): 8300 ± 1200 nM

CN(C)c1ccc2c(-c3ccccc3)c3ccc(=[N+](C)C)cc-3[se]c2c1 [Compound 1-Se]
Km (human P-gp-His10 [1]): 9.1 ± 1.1 µM
